Biological target: LRRK2 G2019S (Homo sapiens, UniProt Q5S007, G2019S)
Test: LRRK2 G2019S Km ATP LanthaScreen assay
Format: biochemical
Settings: for IC50: read-out: LRRK2 pIC50 (converted)

LRRK2 G2019S, sequence (Q5S007 whole entry G2019S): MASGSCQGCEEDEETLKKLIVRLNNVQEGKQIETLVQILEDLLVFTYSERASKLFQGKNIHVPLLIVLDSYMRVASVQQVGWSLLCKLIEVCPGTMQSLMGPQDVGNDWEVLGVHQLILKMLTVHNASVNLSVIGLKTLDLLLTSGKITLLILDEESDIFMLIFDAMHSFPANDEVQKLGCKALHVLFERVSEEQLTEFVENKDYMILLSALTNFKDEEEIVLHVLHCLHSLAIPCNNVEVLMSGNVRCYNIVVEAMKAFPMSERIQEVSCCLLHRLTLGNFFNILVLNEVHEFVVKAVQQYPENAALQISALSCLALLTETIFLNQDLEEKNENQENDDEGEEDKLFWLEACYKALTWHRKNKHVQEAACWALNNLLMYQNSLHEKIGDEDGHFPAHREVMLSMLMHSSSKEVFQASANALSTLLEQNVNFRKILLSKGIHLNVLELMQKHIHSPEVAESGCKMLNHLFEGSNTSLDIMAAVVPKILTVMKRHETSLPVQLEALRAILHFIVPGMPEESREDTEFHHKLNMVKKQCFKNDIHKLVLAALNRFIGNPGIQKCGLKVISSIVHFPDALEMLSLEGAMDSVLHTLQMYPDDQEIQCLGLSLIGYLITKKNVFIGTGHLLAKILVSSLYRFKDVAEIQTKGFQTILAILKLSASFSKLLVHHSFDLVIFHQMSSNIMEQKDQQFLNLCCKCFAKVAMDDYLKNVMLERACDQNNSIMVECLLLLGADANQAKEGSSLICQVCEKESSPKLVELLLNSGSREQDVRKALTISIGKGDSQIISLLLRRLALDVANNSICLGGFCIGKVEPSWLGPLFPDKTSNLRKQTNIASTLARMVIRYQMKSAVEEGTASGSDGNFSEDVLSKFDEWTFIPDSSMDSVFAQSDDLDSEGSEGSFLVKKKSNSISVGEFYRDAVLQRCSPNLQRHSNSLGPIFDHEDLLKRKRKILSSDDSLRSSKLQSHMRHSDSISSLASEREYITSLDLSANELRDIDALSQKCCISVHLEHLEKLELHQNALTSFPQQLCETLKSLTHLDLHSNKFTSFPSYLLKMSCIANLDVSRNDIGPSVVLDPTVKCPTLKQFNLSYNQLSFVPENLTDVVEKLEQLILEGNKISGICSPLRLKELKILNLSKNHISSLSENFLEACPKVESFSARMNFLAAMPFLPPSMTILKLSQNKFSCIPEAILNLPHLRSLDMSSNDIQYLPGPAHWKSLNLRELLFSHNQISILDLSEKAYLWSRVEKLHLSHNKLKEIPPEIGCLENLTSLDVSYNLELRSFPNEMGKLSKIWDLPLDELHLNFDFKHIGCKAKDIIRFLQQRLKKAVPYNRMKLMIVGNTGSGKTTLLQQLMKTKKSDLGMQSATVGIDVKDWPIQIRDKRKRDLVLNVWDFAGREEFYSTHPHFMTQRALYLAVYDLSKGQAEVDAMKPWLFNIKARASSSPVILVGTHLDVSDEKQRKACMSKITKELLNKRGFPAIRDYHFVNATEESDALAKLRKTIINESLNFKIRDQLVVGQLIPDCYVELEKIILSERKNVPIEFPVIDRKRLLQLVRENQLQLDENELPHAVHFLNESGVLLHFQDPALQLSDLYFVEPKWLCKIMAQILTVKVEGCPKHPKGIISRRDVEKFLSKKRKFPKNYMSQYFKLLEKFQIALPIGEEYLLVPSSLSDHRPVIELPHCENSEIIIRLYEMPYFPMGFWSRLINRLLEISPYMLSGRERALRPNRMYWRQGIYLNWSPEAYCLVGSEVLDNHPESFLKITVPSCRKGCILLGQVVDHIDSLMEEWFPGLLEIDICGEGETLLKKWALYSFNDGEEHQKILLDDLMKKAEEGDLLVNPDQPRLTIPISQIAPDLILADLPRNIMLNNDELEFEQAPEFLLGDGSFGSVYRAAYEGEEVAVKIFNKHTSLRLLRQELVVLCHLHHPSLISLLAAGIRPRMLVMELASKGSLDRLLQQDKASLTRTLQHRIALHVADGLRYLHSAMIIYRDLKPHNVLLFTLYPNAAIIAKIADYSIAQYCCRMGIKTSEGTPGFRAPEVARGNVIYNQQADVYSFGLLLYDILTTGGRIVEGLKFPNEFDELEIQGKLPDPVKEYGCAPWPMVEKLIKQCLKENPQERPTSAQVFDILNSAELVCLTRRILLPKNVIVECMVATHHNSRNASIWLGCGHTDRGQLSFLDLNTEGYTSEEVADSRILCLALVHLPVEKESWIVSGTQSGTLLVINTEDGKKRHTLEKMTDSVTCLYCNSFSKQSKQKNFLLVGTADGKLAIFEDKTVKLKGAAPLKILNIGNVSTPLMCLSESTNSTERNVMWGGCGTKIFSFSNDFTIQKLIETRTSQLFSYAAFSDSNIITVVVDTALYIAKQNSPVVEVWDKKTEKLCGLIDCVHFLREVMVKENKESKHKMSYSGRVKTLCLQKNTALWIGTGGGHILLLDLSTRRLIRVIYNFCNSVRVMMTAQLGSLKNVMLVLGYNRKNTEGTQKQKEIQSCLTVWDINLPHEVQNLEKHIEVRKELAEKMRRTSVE

| SMILES | LRRK2 pIC50 | IC50 |
| --- | --- | --- |
| CO[C@H]1C[C@H](C(=O)Nc2cc3cc(C4(C#N)CC45CC5)ccc3cn2)C1.O=C(O)C(F)(F)F (stereo partly shown) [Ex-1.1] | 8.96 |  |
| O=C(Nc1cc2cc(C3CCN(C4COC4)CC3)c(Cl)cc2cn1)[C@@H]1CCCCO1 [Ex-1.10, (S)-N-(7-chloro-6-(1-(oxetan-3-yl)piperidin-4-yl)isoquinolin-3-yl)tetrahydro-2H-pyran-2-carboxamide] |  | 3.98 nM |
| C[C@H]1CC(F)(F)CC[C@H]1C(=O)Nc1cc2cc(C3CCN(C4COC4)CC3)c(Cl)cc2cn1 [Ex-1.11, (1R,2S)-N-(7-chloro-6-(1-(oxetan-3-yl)piperidin-4-yl)isoquinolin-3-yl)-4,4-difluoro-2-methylcyclohexane-1-carboxamide] |  | 39.8 nM |
| O=C(Nc1cc2cc(C3CCN(C4COC4)CC3)c(Cl)cc2cn1)[C@@H]1C[C@@H](O)[C@H](F)C1 [Ex-1.12, (1R,3R,4R)-N-(7-chloro-6-(1-(oxetan-3-yl)piperidin-4-yl)isoquinolin-3-yl)-3-fluoro-4-hydroxycyclopentane-1-carboxamide] |  | 9.33 nM |
| O=C(Nc1cc2cc(C3CCN(C4COC4)CC3)c(Cl)cc2cn1)[C@H]1C[C@H]1F [Ex-1.13, (1R,2R)-N-(7-chloro-6-(1-(oxetan-3-yl)piperidin-4-yl)isoquinolin-3-yl)-2-fluorocyclopropane-1-carboxamide] |  | 2.45 nM |
| O=C(C[C@@H](O)C(F)(F)F)Nc1cc2cc(C3CCN(C4COC4)CC3)c(Cl)cc2cn1 [Ex-1.35, (R)-N-(7-chloro-6-(1-(oxetan-3-yl)piperidin-4-yl)isoquinolin-3-yl)-4,4,4-trifluoro-3-hydroxybutanamide] |  | 26.3 nM |
| Cn1cc(C(=O)Nc2cc3cc(C4CCN(C5COC5)CC4)c(Cl)cc3cn2)cn1 [Ex-1.36, N-(7-chloro-6-(1-(oxetan-3-yl)piperidin-4-yl)isoquinolin-3-yl)-1-methyl-1H-pyrazole-4-carboxamide] |  | 5.89 nM |
| Cc1nc(C(=O)Nc2cc3cc(C4CCN(C5COC5)CC4)c(Cl)cc3cn2)co1 [Ex-1.37, N-(7-chloro-6-(1-(oxetan-3-yl)piperidin-4-yl)isoquinolin-3-yl)-2-methyloxazole-4-carboxamide] |  | 12.6 nM |
| O=C(Nc1cc2cc(C3CCN(C4COC4)CC3)c(Cl)cc2cn1)c1cocn1 [Ex-1.38, N-(7-chloro-6-(1-(oxetan-3-yl)piperidin-4-yl)isoquinolin-3-yl)oxazole-4-carboxamide] |  | 11.5 nM |
| CC1(N2CCC(c3cc4cc(NC(=O)C5CC5C#N)ncc4cc3Cl)CC2)COC1 (stereo not shown) [Ex-2.8] |  | 8.32 nM |
| CCOC1CC1C(=O)Nc1cc2cc(C3CCN(C4(C)COCC4O)CC3)c(Cl)cc2cn1 (stereo not shown) [Ex-2.10] |  | 1.15 nM |
| CC1(C)CC1C(=O)Nc1cc2cc(C3CCN(C4(C)COCC4O)CC3)c(Cl)cc2cn1 (stereo not shown) [Ex-2.11] |  | 2 nM |
| CC1(C)CC1C(=O)Nc1cc2cc(C3CCN(C4(C)COCC4O)CC3)c(Cl)cc2cn1 (stereo not shown) [Ex-2.12] |  | 0.355 nM |
| CC(C)(O)C1CC(C(=O)Nc2cc3cc(C4CCN(C5(C)COCC5O)CC4)c(Cl)cc3cn2)C1 (stereo not shown) [Ex-2.13] |  | 0.174 nM |
| CC(C)(O)C1CC(C(=O)Nc2cc3cc(C4CCN(C5(C)COCC5O)CC4)c(Cl)cc3cn2)C1 (stereo not shown) [Ex-2.14] |  | 0.186 nM |
| CC1(N2CCC(c3cc4cc(NC(=O)C5C6COCC65)ncc4cc3Cl)CC2)COCC1O (stereo not shown) [Ex-2.15] |  | 0.214 nM |
| CC1(N2CCC(c3cc4cc(NC(=O)C5CC56CCC(F)(F)CC6)ncc4cc3Cl)CC2)COCC1O (stereo not shown) [Ex-2.16] |  | 0.407 nM |
| CC1(N2CCC(c3cc4cc(NC(=O)C5CC56CCC(F)(F)CC6)ncc4cc3Cl)CC2)COCC1O (stereo not shown) [Ex-2.17] |  | 4.27 nM |
| CC(C)(O)C1CC1C(=O)Nc1cc2cc(C3CCN(C4(C)COCC4O)CC3)c(Cl)cc2cn1 (stereo not shown) [Ex-2.20] |  | 11.5 nM |
| CC(C)(O)C1CC1C(=O)Nc1cc2cc(C3CCN(C4(C)COCC4O)CC3)c(Cl)cc2cn1 (stereo not shown) [Ex-2.21] |  | 0.0813 nM |
| CC1(N2CCC(c3cc4cc(NC(=O)C5CC56CCOCC6)ncc4cc3Cl)CC2)CCOC1 (stereo not shown) [Ex-2.22] |  | 4.57 nM |
| CC1(N2CCC(c3cc4cc(NC(=O)C5CC56CCOCC6)ncc4cc3Cl)CC2)CCOC1 (stereo not shown) [Ex-2.23] |  | 0.166 nM |
| CC(C)(O)C1CC1C(=O)Nc1cc2cc(C3CCN(C4(C)CCOC4)CC3)c(Cl)cc2cn1 (stereo not shown) [Ex-2.24] |  | 0.257 nM |
| CC1(N2CCC(c3cc4cc(NC(=O)C5CCCOC5)ncc4cc3Cl)CC2)COCC1O (stereo not shown) [Ex-2.25] |  | 0.0813 nM |
| CC(C)OC1CCC(C(=O)Nc2cc3cc(C4CCN(C5(C)COCC5O)CC4)c(Cl)cc3cn2)CO1 (stereo not shown) [Ex-2.27] |  | 0.324 nM |

| SMILES | LRRK2 pIC50 | IC50 |
| --- | --- | --- |
| CC1(N2CCC(c3cc4cc(NC(=O)[C@@H]5CCCO5)ncc4cc3Cl)CC2)COCC1O (stereo partly shown) [Ex-2.28] |  | 0.513 nM |
| CC1(C)CC(C(=O)Nc2cc3cc(C4CCN(C5(C)COCC5O)CC4)c(Cl)cc3cn2)CO1 (stereo not shown) [Ex-2.29] |  | 0.234 nM |
| CC1(C)CC(C(=O)Nc2cc3cc(C4CCN(C5(C)COCC5O)CC4)c(Cl)cc3cn2)CO1 (stereo not shown) [Ex-2.30] |  | 0.126 nM |
| CC(C)(O)C1CC1C(=O)Nc1cc2cc(C3(C#N)CC34CC4)ccc2cn1 (stereo not shown) [Ex-2.31] |  | 0.224 nM |
| CC1(N2CCC(c3cc4cc(NC(=O)C5CC5C#N)ncc4cc3Cl)CC2)COCC1O (stereo not shown) [Ex-2.32] |  | 0.0813 nM |
| CC1(C)CC(C(=O)Nc2cc3cc(C4CCN(C5(C)COCC5O)CC4)c(Cl)cc3cn2)CCO1 (stereo not shown) [Ex-2.34] |  | 1.7 nM |
| CC1(C)CC(C(=O)Nc2cc3cc(C4CCN(C5(C)COCC5O)CC4)c(Cl)cc3cn2)CCO1 (stereo not shown) [Ex-2.35] |  | 2.63 nM |
| Cn1cc(C2CC2C(=O)Nc2cc3cc(C4CCN(C5(C)COCC5O)CC4)c(Cl)cc3cn2)cn1 (stereo not shown) [Ex-2.36] |  | 0.55 nM |
| Cn1cc(C2CC2C(=O)Nc2cc3cc(C4CCN(C5(C)COCC5O)CC4)c(Cl)cc3cn2)cn1 (stereo not shown) [Ex-2.37] |  | 0.0813 nM |
| N#CC1(c2ccc3cnc(NC(=O)C4CC4c4ccccn4)cc3c2)CC12CC2 (stereo not shown) [Ex-2.38] |  | 2.04 nM |
| N#CC1(c2ccc3cnc(NC(=O)C4CC4c4ccccn4)cc3c2)CC12CC2 (stereo not shown) [Ex-2.39] |  | 2.29 nM |
| N#CC1(c2ccc3cnc(NC(=O)C4CC4c4ccccn4)cc3c2)CC12CC2 (stereo not shown) [Ex-2.40] |  | 0.575 nM |
| N#CC1(c2ccc3cnc(NC(=O)C4CC4c4ccncc4)cc3c2)CC12CC2 (stereo not shown) [Ex-2.41] |  | 1.86 nM |
| N#CC1(c2ccc3cnc(NC(=O)C4CC4c4ccncc4)cc3c2)CC12CC2 (stereo not shown) [Ex-2.42] |  | 2.34 nM |
| N#CC1(c2ccc3cnc(NC(=O)C4CCN(CC(F)(F)F)C4)cc3c2)CC12CC2 (stereo not shown) [Ex-2.43] |  | 31.6 nM |
| N#CC1(c2ccc3cnc(NC(=O)C4CCN(CC(F)(F)F)C4)cc3c2)CC12CC2 (stereo not shown) [Ex-2.44] |  | 39.8 nM |
| N#CC1(c2ccc3cnc(NC(=O)C4CC4c4cccnc4)cc3c2)CC12CC2 (stereo not shown) [Ex-2.45] |  | 11.2 nM |
| N#CC1(c2ccc3cnc(NC(=O)C4CC4c4cccnc4)cc3c2)CC12CC2 (stereo not shown) [Ex-2.46] |  | 0.851 nM |
| Cn1ncc(C2CC2C(=O)Nc2cc3cc(C4(C#N)CC45CC5)ccc3cn2)c1C(F)(F)F (stereo not shown) [Ex-2.47] |  | 457 nM |
| Cn1ncc(C2CC2C(=O)Nc2cc3cc(C4(C#N)CC45CC5)ccc3cn2)c1C(F)(F)F (stereo not shown) [Ex-2.48] |  | 324 nM |
| Cc1cc2cnc(NC(=O)C3CCOC(C)(C)C3)cc2cc1C1CCN(C2(C)COCC2O)CC1 (stereo not shown) [Ex-2.49] |  | 0.513 nM |
| Cc1cc2cnc(NC(=O)C3CCOC(C)(C)C3)cc2cc1C1CCN(C2(C)COCC2O)CC1 (stereo not shown) [Ex-2.50] |  | 7.41 nM |
| Cc1cc2cnc(NC(=O)C3C4CCOCC43)cc2cc1C1CCN(C2(C)COCC2O)CC1 (stereo not shown) [Ex-2.51] |  | 0.759 nM |
| Cc1cc2cnc(NC(=O)C3C4CCOCC43)cc2cc1C1CCN(C2(C)COCC2O)CC1 (stereo not shown) [Ex-2.52] |  | 0.676 nM |

— US20240398784A1, “C-LINKED ISOQUINOLINE AMIDES AS LRRK2 INHIBITORS, PHARMACEUTICAL COMPOSITIONS, AND USES THEREOF” (Merck Sharp & Dohme LLC, priority 2021, published 2024)
